The source of these data is patent US20090208934A1, “PECAM-1 GENOTYPE” (The Johns Hopkins University, priority 2005, published 2009).

One experiment deals with Ren (+/PM) cells. Put plainly: Ren cell aggregation assay. In kind it is cell-based. The conditions noted are these: 125Val plus 563Asn PECAM-1 transfected, agent added to cell suspension at two concentrations, 90 rpm, 37° C., 20 minutes, FIG. 4. Here is the method:
(§1) FIG. 4 depicts the results of a Ren cell aggregation assay. About 2×10^6 of Ren cells, Ren (−), Ren (+/WT) and Ren (+/PM), were seeded in a T75 flask and cultured for 48 hours for aggregation assays. The monodispersed Ren cells suspension (10^6 cells/ml in HBSS with 1 mM CaCl2) were prepared. Next, two concentrations of anti-PECAM-1 antibody (JHS-7) (A), and human rcPECAM-1 (B) were added in. Then, cells were transfected to wells in a 24-well tissue culture tray (1 mL per well) and rotated on a gyratory shaker (at 90 rpm) at 37° C. for 20 minutes. Data are expressed as the percent of total cells present in aggregates. *P<0.05, **P<0.01.
(§2) A variation of aggregation assay of Takeichi (59) was adopted. Briefly, confluent culture of Ren cells were detached and dispersed and resuspended to about 10^6 cells/ml in HBSS (37° C.) with 1 mM CaCl2. One ml cell aliquots were transfected to wells in a 24-well plate and rotated on a gyratory shaker (At 90 rpm) at 37° C. for 20 minutes, then stopped by addition of glutaraldehyde to a final concentration of 2%. Aggregation was quantified by examining representative aliquot of equal volumes from each sample on a hemacytometer grid under phase contrast optics. Cells remaining as single cells or present in aggregates (≧3 cells clots) were counted in nine squares. Data are expressed as the percent of total cells present in aggregates.

In another experiment the test system is Ren (+/WT) cells. Put plainly: Ren cell aggregation assay. In kind it is cell-based. The conditions noted are these: wild type PECAM-1 transfected, agent added to cell suspension at two concentrations, 90 rpm, 37° C., 20 minutes, FIG. 4. Here is the method:
as §1, §2

With “recombinant human PECAM-1 protein: Soluble recombinant PECAM-1 (95˜98 KDa, containing only the extracellular domains), purchased from R&D Systems (Cat# ADP6C)”, the “effect on Ren cell aggregation (percent of total cells present in aggregates)” value in the experiment with Ren (+/PM) cells and in the experiment with Ren (+/WT) cells was “attenuated the aggregation” in each case.
